According to paper PMC2151269, “Broad phase II and pharmacokinetic study of methoxy-morpholino doxorubicin (FCE 23762-MMRDX) in non-small-cell lung cancer, renal cancer and other solid tumour patients” (British Journal of Cancer, 1998):

What was measured:
[1] = Urinary excretion up to 96 h; assay type: in vivo, human
From the text: (§1) British Jourmal of Cancer (1998) 77(1), 139-146 ? 1998 Cancer Research Campaign Broad phase 11 and pharmacokinetic study of methoxy-morpholino doxorubicin (FCE 23762-MMRDX) in non-small-cell lung cancer, renal cancer and other solid tumour patients M Bakker', JP Droz2, AR Hanauske3, J Verweij4, AT van Oosterom5, HJM Groen', MA Pacciarini6, L Domenigoni6, F van Weissenbruch', E Pianezzola6 and EGE de Vries' 'University Hospital Groningen, The Netherlands; 2Centre L6on Berard, Lyon, France; 3Med. […] Patients received a maximum of six cycles. […] Limitations of the clinical value of anthracyclines are their toxicity profile, especially irreversible, dose-related cardiotoxicity, and intrinsic or acquired tumour resis- tance. Various mechanisms play a role in tumour cell resistance to anthracyclines, including overexpression of drug efflux pumps such as P-glycoprotein, decreased levels of the target enzyme topoisomerase II, and an increase in cellular detoxifying capacity (Kaye and Merry, 1985; Deffie et al, 1989; De Jong et al, 1990; Ford and Hait, 1990; Meijer et al, 1990; Zaman et al, 1994). The morpholinyl anthracyclines have been developed in the course of research aimed at identifying new anthracyclines with at least partially novel modes of action in addition to activity against resis- tant tumours (Acton et al, 1984). […] Box 30.001, 9700 RB Groningen, The Netherlands (Figure 1).

[2] = test system: left ventricular ejection fraction (LVEF); assay: Cardiac toxicity: LVEF by MUGA scan or echocardiography; assay type: in vivo, human
From the text: as §1

[3] = Plasma pharmacokinetics, cycle 1 (HPLC with fluorescence detection); assay type: in vivo, human
From the text: as §1

[4] = Leucocyte (cellular) drug levels 2 and 24 h after injection; assay type: in vivo, human; details: for Leucocyte MMRDX levels, median: n = 6, per l cell volume
From the text: as §1

solid tumour patients = test system: solid tumour patients; parameters: method as in Vasey et al, 1995; details: i.v. bolus every 3 weeks, phase I study; ref Vasey et al, 1995; cited from earlier work
[5] = test system: NSCLC, renal cell cancer, head and neck cancer, cervix carcinoma, ACUP; assay: Tumour response according to WHO criteria; assay type: in vivo, human
From the text: as §1

[6] = test system: metastatic or unresectable solid tumour patients; assay: Non-haematological toxicity (CTC grading) in broad phase II study; assay type: in vivo, human; details: for Percentage of cycles with alopecia / Percentage of cycles with diarrhoea / Percentage of cycles with fatigue/malaise / Percentage of cycles with liver toxicity, ALAT / Percentage of cycles with liver toxicity, ASAT / Percentage of cycles with nausea / Percentage of cycles with stomatitis / Percentage of cycles with vomiting / Percentage of cycles with liver toxicity, bilirubin: 132 evaluable cycles
From the text: as §1

[7] = plasma, three-compartmental model, first cycle, 11 patients, 1.5 mg m-2 i.v.
[8] = out of 131 cycles, despite intensive prophylactic antiemetic treatment

For `COc1cccc2c1C(=O)c1c(O)c3c(c(O)c1C2=O)C[C@@](O)(C(=O)CO)C[C@@H]3O[C@H]1C[C@H](N2CCO[C@H](OC)C2)[C@H](O)[C@H](C)O1` [MMRDX, methoxymorpholino-doxorubicin], the Renal clearance ([1]; in vivo) was “about 1.8 l h-1”, the “Urinary excretion of the unchanged drug, % of the administered dose” value ([1]; urine collection up to 96 h, nine patients) was 2% and the “Patients with left ventricular ejection fraction reduced >= 15%” value ([2]; 26 patients evaluable for cardiac toxicity) was “two”. The “Decrease in LVEF” value ([2]; one patient with head and neck cancer, after three cycles, cumulative dose 4.5 mg m-2) was 15%, the Cardiotoxicity ([2]; overall conclusion of the study) was “No clear signs of cardiotoxicity were observed” and the “Decrease in LVEF” value ([2]; second patient (NSCLC), echocardiography, after four cycles, cumulative dose 6 mg m-2) was 17%. The “Terminal half-life relative to epirubicin t1/2,z” value ([3]; epirubicin value ref Camaggi et al, 1988) was 1.6 fold, the “Interindividual coefficient of variation” value ([3]; on the basis of AUC calculated up to infinite time) was “about 20%” and the “Plasma clearance, mean ± s.d.” value ([3]; plasma, 11 patients, 1.5 mg m-2 i.v.) was 37.2 +/- 7.3 l h-1 m-2. For the same compound, the “AUC0-infinity, mean ± s.d.” value ([3]; plasma, n = 11, 1.5 mg m-2 i.v., linear trapezoidal rule) was 20.4 ± 6.2 ng·h/mL, the “Half-life of the first phase” value ([3]; plasma, three-compartmental model, 11 patients, 1.5 mg m-2 i.v.) was 4 min and the “t1/2,beta (second phase), mean ± s.d.” value [3, 7] was 2.4 h. For the same compound, the “t1/2,gamma (third phase), mean ± s.d.” value [3, 7] was 49 h, the “Mean leucocyte concentration relative to corresponding plasma concentration” value ([4]; 2 h after infusion) was 650 fold and the “Leucocyte MMRDX levels, median” value ([4]; 2 h after infusion) was 414 µg/L. For the same compound, the “Mean leucocyte concentration relative to corresponding plasma concentration” value ([4]; 24 h after infusion) was 400 fold, the “Leucocyte MMRDX levels, median” value ([4]; 24 h after infusion) was 174 µg/L and the Maximum-tolerated dose (solid tumour patients) was 1.5 mg m-2. For the same compound, the “Efficacy in NSCLC and renal cell cancer” value ([5]; NSCLC (20 evaluable patients) and renal cell cancer (18 evaluable patients)) was “ineffective”, the “Patients with partial response” value ([5]; NSCLC patient with retroperitoneal metastases, forty-three patients evaluable for tumour response) was “One” and the “Patients with progressive disease” value ([5]; forty-three patients evaluable) was “Twenty-five”. For the same compound, the “Patients with stable disease” value ([5]; forty-three patients evaluable) was 17 patients, the “Duration of partial response” value ([5]; one NSCLC patient) was 17 weeks and the “Late and prolonged nausea > or = grade II, % of cycles” value ([6]; 132 cycles) was 34%. For the same compound, the “Vomiting > or = grade II, % of cycles” value ([6]; 132 cycles) was 39%, the “Cycles with transient elevation of ALAT” value ([6]; % of cycles) was 71% and the “Cycles with transient elevation of ASAT” value ([6]; % of cycles) was 64%. For the same compound, the “Percentage of cycles with alopecia” value ([6]; CTC Grade I) was 10%, the “Percentage of cycles with diarrhoea” value ([6]; CTC Grade I) was 7% and the “Percentage of cycles with fatigue/malaise” value ([6]; CTC Grade I) was 24%. The “Percentage of cycles with liver toxicity, ALAT” value (“Percentage of cycles … ALAT” for short) ([6]; CTC Grade I) was 37%, the “Percentage of cycles with liver toxicity, ASAT” value (from here on “Percentage of cycles … ASAT”) ([6]; CTC Grade I) was 46% and the “Percentage of cycles with nausea” value ([6]; CTC Grade I) was 43%. The “Percentage of cycles with stomatitis” value ([6]; CTC Grade I) was 11%, the “Percentage of cycles with vomiting” value ([6]; CTC Grade I) was 24% and the “Percentage of cycles with alopecia” value ([6]; CTC Grade II) was 1.5%. For the same compound, the “Percentage of cycles with diarrhoea” value ([6]; CTC Grade II) was 1%, the “Percentage of cycles with fatigue/malaise” value ([6]; CTC Grade II) was 22% and the “Percentage of cycles … ALAT” value ([6]; CTC Grade II) was 27%. For the same compound, the “Percentage of cycles … ASAT” value ([6]; CTC Grade II) was 16%, the “Percentage of cycles with liver toxicity, bilirubin” value (from here on “Percentage of cycles … bilirubin”) ([6]; CTC Grade II) was 12% and the “Percentage of cycles with nausea” value ([6]; CTC Grade II) was 27%. For the same compound, the “Percentage of cycles with stomatitis” value ([6]; CTC Grade II) was 1%, the “Percentage of cycles with vomiting” value ([6]; CTC Grade II) was 30% and the “Percentage of cycles with diarrhoea” value ([6]; CTC Grade III) was 1%. The “Percentage of cycles with fatigue/malaise” value ([6]; CTC Grade III) was 7%, the “Percentage of cycles … ALAT” value ([6]; CTC Grade III) was 7% and the “Percentage of cycles … ASAT” value ([6]; CTC Grade III) was 2%. For the same compound, the “Percentage of cycles … bilirubin” value ([6]; CTC Grade III) was 0%, the “Percentage of cycles with nausea” value ([6]; CTC Grade III) was 7% and the “Percentage of cycles with stomatitis” value ([6]; CTC Grade III) was 1%. For the same compound, the “Percentage of cycles with vomiting” value ([6]; CTC Grade III) was 4%, the “Percentage of cycles with diarrhoea” value ([6]; CTC Grade IV) was 0% and the “Percentage of cycles with fatigue/malaise” value ([6]; CTC Grade IV) was 5%. The “Percentage of cycles … ALAT” value ([6]; CTC Grade IV) was 0%, the “Percentage of cycles … ASAT” value ([6]; CTC Grade IV) was 0% and the “Percentage of cycles … bilirubin” value ([6]; CTC Grade IV) was 1%. The “Percentage of cycles with stomatitis” value ([6]; CTC Grade IV) was 0%, the “Percentage of cycles with vomiting” value ([6]; CTC Grade IV) was 5% and the “Fatigue grade I-III, % of cycles” value ([6]; considered as drug-related) was 53%. For the same compound, the “Alopecia grade I or II, % of cycles” value ([6]; in vivo) was 11%, the Cumulative liver toxicity ([6]; in vivo) was “No cumulative liver toxicity was observed” and the “Cycles with CTC toxicity >= grade I of ALAT” value ([6]; in vivo) was 87 cycles. For the same compound, the “Cycles with CTC toxicity >= grade I of ASAT” value ([6]; in vivo) was 78 cycles, the “Cycles with CTC toxicity >= grade I of bilirubin” value ([6]; in vivo) was 15 cycles and the “Cycles with CTC toxicity >= grade III of ALAT” value ([6]; in vivo) was “nine”. The “Cycles with CTC toxicity >= grade III of ASAT” value ([6]; in vivo) was “two”, the “Cycles with CTC toxicity >= grade III of bilirubin” value ([6]; in vivo) was “one” and the “Grade I-II diarrhoea, % of cycles” value ([6]; in vivo) was 8%. The “Grade I-II stomatitis, % of cycles” value ([6]; in vivo) was 11%, the “Local phlebitis at the injection site, renal toxicity, neurotoxicity” value ([6]; in vivo) was “Neither local phlebitis at the injection site nor renal or neuro- toxicity were observed” and the “Median day of onset of nausea” value ([6]; in vivo) was 3 (range 1-17) day. For the same compound, the “Median day of onset of vomiting” value ([6]; in vivo) was 3 (range 1-22) day, the “Patients hospitalized for nausea/vomiting” value ([6]; in vivo) was “Five” and the “Nausea and vomiting grade III-IV, % of cycles” value ([6]; in vivo, iv) was 9%. For the same compound, the “Day of maximum transient elevations of ASAT and ALAT” value ([6]; lasting approximately one week) was 8 days, the “Patients with alopecia grade I or II” value ([6]; only one grade II) was “Nine” and the Cycles with nausea [6, 8] was 100 cycles. For the same compound, the Cycles with vomiting [6, 8] was 82 cycles, the “Transient transaminases elevation grade III/IV, % of cycles” value ([6]; printed '> grade III/IV', 132 cycles) was 7% and the “Median hospitalization duration for nausea/vomiting” value ([6]; range 1-7) was 4 days. The “Median duration of vomiting” value ([6]; range 1-28) was 3 days, the “Median duration of nausea” value ([6]; range 1-38) was 7 days and the “Median day of recovery of ASAT to normal values” ([6]; range 8-26) was 15 days. The “Median day of recovery of ALAT to normal values” ([6]; range 8-36) was 15 days.
